Data from patent publication US6413542B1, “Direct pour-on antiparasitic skin solution and methods for treating, preventing and controlling myasis” (Merial, priority 1996, dated 2002).

Assays:
[1] = Solubility of compound A in the solvent acetyl tributyl citrate; assay type: physicochemical
From the text: The solvent will be used in proportion with the concentration of the compound I and its solubility in this solvent.
It will be sought to have the lowest possible volume.

Boophilus microplus [2] = assay: Example 2: efficacy of pour-on skin solutions against Boophilus microplus on artificially infested cattle (tick counts); assay type: in vivo; conditions: skin solution containing 1% compound A, 1 ml per 10 kg along the line of the back
Experimental: Study of the efficacy of skin solutions according to the invention containing, respectively, 0.25, 0.50 and 1% compound A to combat Boophilus microplus.
The study was performed on 16 young male castrated Herefords (weight ranging between 114 and 172 kg).
Three skin solutions according to Example 1 were prepared:
A placebo was prepared, which differed from the skin solutions according to the invention in that it contained no compound A.
In the studies, 1 ml of skin solution or of placebo were used per 10 kg of animal weight.
The dose volume was applied along the line of the animal's back, from the head to the base of the tail.
Between days-24 and -1, the animals were artificially infested on 11 occasions with 2,500 Boophilus microplus larvae. The aim of 24-day infestation is to ensure that all of the stages of Boophilus microplus are present on the animal (eggs, larvae, adults).
On day 0, the animals receive one of the skin solutions or the placebo.
Before the skin solutions or the placebo are applied, the number of ticks present on the various animals in the different groups are counted.
The blood-engorged female ticks which become detached are included in the count.

Boophilus microplus [3] = assay: Example 4: efficacy over time of skin solutions on cattle re-infested with larvae for 13 weeks; assay type: in vivo; set-up: Efficacy index: scale not given here
From the text: Study of efficacy over time.
Skin solutions according to the invention containing 0.25, 0.5 or 1% compound A where used in this example.
The composition of these solutions is the same as for the above examples.
The cattle were preinfested so as to have all of the stages of Boophilus microplus present (infestation with 5,000 larvae, 22 days, 15 days and 8 days before application of the skin solution).
After application of the skin solutions, the cattle are again infested with the larvae for 13 weeks, to determine the efficacy of the three concentrations.

Q: For `N#Cc1nn(-c2c(Cl)cc(C(F)(F)F)cc2Cl)c(N)c1[S+]([O-])C(F)(F)F` (stereo not drawn) [compound A, 1-[2,6-Cl2 4-CF3phenyl]3-CN 4-[SO-CF3]5-NH2pyrazole], which solubility [1] is on record?
A: The solubility was 4.3 % m/V.

Q: And the efficacy (Boophilus microplus [2])?
A: The efficacy was 100%.

Q: What about the Efficacy index (Boophilus microplus [3]; 0.25% solution, week 1 of infestation after treatment) of the same molecule?
A: Its Efficacy index is 97.6.

Q: What about the Efficacy index (Boophilus microplus [3]; 0.25% solution, week 2 of infestation after treatment) of the same molecule?
A: The Efficacy index was 98.8.

Q: And the Efficacy index (Boophilus microplus [3]; 0.25% solution, week 3 of infestation after treatment)?
A: The Efficacy index was 99.7.

Q: What about the Efficacy index (Boophilus microplus [3]; 0.25% solution, week 4 of infestation after treatment) of the same molecule?
A: Its Efficacy index is 99.3.

Q: And the Efficacy index (Boophilus microplus [3]; 0.25% solution, week 5 of infestation after treatment)?
A: Its Efficacy index is 96.7.

Q: What about the Efficacy index (Boophilus microplus [3]; 0.25% solution, week 6 of infestation after treatment) of the same molecule?
A: The Efficacy index was 98.6.

Q: And the Efficacy index (Boophilus microplus [3]; 0.25% solution, week 7 of infestation after treatment)?
A: Its Efficacy index is 92.4.

Q: What about the Efficacy index (Boophilus microplus [3]; 0.25% solution, week 8 of infestation after treatment) of the same molecule?
A: Its Efficacy index is 85.8.

Q: And the Efficacy index (Boophilus microplus [3]; 0.25% solution, week 9 of infestation after treatment)?
A: The Efficacy index was 28.0.

Q: And the Efficacy index (Boophilus microplus [3]; 0.25% solution, week 10 of infestation after treatment)?
A: Its Efficacy index is 23.0.

Q: What about the Efficacy index (Boophilus microplus [3]; 0.25% solution, week 11 of infestation after treatment) of the same molecule?
A: The Efficacy index was 18.9.

Q: What about the Efficacy index (Boophilus microplus [3]; 0.25% solution, week 12 of infestation after treatment) of the same molecule?
A: The Efficacy index was 1.7.

Q: And the Efficacy index (Boophilus microplus [3]; 0.25% solution, week 13 of infestation after treatment)?
A: Its Efficacy index is 8.4.

Q: And the Efficacy index (Boophilus microplus [3]; 0.5% solution, week 1 of infestation after treatment)?
A: Its Efficacy index is 100.

Q: And the Efficacy index (Boophilus microplus [3]; 0.5% solution, week 2 of infestation after treatment)?
A: Its Efficacy index is 100.

Q: What about the Efficacy index (Boophilus microplus [3]; 0.5% solution, week 3 of infestation after treatment) of the same molecule?
A: The Efficacy index was 100.

Q: What about the Efficacy index (Boophilus microplus [3]; 0.5% solution, week 4 of infestation after treatment) of the same molecule?
A: Its Efficacy index is 100.

Q: And the Efficacy index (Boophilus microplus [3]; 0.5% solution, week 5 of infestation after treatment)?
A: The Efficacy index was 92.9.

Q: And the Efficacy index (Boophilus microplus [3]; 0.5% solution, week 6 of infestation after treatment)?
A: Its Efficacy index is 93.2.

Q: What about the Efficacy index (Boophilus microplus [3]; 0.5% solution, week 7 of infestation after treatment) of the same molecule?
A: The Efficacy index was 88.6.

Q: And the Efficacy index (Boophilus microplus [3]; 0.5% solution, week 8 of infestation after treatment)?
A: The Efficacy index was 83.4.

Q: And the Efficacy index (Boophilus microplus [3]; 0.5% solution, week 9 of infestation after treatment)?
A: The Efficacy index was 37.9.

Q: What about the Efficacy index (Boophilus microplus [3]; 0.5% solution, week 10 of infestation after treatment) of the same molecule?
A: Its Efficacy index is 41.4.

Q: And the Efficacy index (Boophilus microplus [3]; 0.5% solution, week 11 of infestation after treatment)?
A: The Efficacy index was 55.2.

Q: What about the Efficacy index (Boophilus microplus [3]; 0.5% solution, week 12 of infestation after treatment) of the same molecule?
A: Its Efficacy index is 37.3.

Q: And the Efficacy index (Boophilus microplus [3]; 0.5% solution, week 13 of infestation after treatment)?
A: Its Efficacy index is 48.5.

Q: What about the Efficacy index (Boophilus microplus [3]; 1.0% solution, week 1 of infestation after treatment) of the same molecule?
A: The Efficacy index was 100.

Q: What about the Efficacy index (Boophilus microplus [3]; 1.0% solution, week 2 of infestation after treatment) of the same molecule?
A: The Efficacy index was 100.

Q: What about the Efficacy index (Boophilus microplus [3]; 1.0% solution, week 3 of infestation after treatment) of the same molecule?
A: The Efficacy index was 100.

Q: And the Efficacy index (Boophilus microplus [3]; 1.0% solution, week 4 of infestation after treatment)?
A: Its Efficacy index is 100.

Q: And the Efficacy index (Boophilus microplus [3]; 1.0% solution, week 5 of infestation after treatment)?
A: The Efficacy index was 100.

Q: And the Efficacy index (Boophilus microplus [3]; 1.0% solution, week 6 of infestation after treatment)?
A: Its Efficacy index is 100.

Q: What about the Efficacy index (Boophilus microplus [3]; 1.0% solution, week 7 of infestation after treatment) of the same molecule?
A: The Efficacy index was 99.7.

Q: What about the Efficacy index (Boophilus microplus [3]; 1.0% solution, week 8 of infestation after treatment) of the same molecule?
A: Its Efficacy index is 100.

Q: What about the Efficacy index (Boophilus microplus [3]; 1.0% solution, week 9 of infestation after treatment) of the same molecule?
A: The Efficacy index was 79.8.

Q: And the Efficacy index (Boophilus microplus [3]; 1.0% solution, week 10 of infestation after treatment)?
A: Its Efficacy index is 65.3.

Q: And the Efficacy index (Boophilus microplus [3]; 1.0% solution, week 11 of infestation after treatment)?
A: Its Efficacy index is 61.5.

Q: What about the Efficacy index (Boophilus microplus [3]; 1.0% solution, week 12 of infestation after treatment) of the same molecule?
A: Its Efficacy index is 32.2.

Q: And the Efficacy index (Boophilus microplus [3]; 1.0% solution, week 13 of infestation after treatment)?
A: Its Efficacy index is 46.4.

Q: And the “period of efficacy against Boophilus microplus” value (Boophilus microplus [3]; pour-on skin solutions, cattle)?
A: The value was “two”.
